Experimental data: US20220378763A1, “COMPOUND FOR TREATMENT OF ACUTE INFLAMMATION IN THE MYOCARDIUM” (CALPROTECT AB, priority 2019, published 2022)

Key:
[1] = biological target: T1, S100A9 binding to TLR4/MD2 (Homo sapiens, UniProt P06702); test: Surface plasmon resonance (Biacore 3000): inhibition of S100A9 binding to immobilized TLR4; settings: 50 nM recombinant human S100A9 over immobilized TLR4; response at late dissociation phase
T1 sequence (P06702 1-114): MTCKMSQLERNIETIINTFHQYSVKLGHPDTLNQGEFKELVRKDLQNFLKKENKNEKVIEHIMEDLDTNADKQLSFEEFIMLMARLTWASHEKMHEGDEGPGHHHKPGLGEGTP
Description: (a) The molecular structure of ABR-238901. (b-c) Surface plasmon resonance measurement of S100A9 binding to immobilized RAGE (b) and TLR4 (c) in the presence of increasing ABR-238901 concentrations. The magnitude of the response for each ABR-238901 concentration (BABR-238901), measured at the late dissociation phase (t 350s), was expressed as percentage of the response in the absence of competitor (BO), and plotted against the concentration of ABR-238901.
Inhibition of S100A9 binding to RAGE and TLR4/MD2 by ABR-238901 was tested by surface plasmon resonance in a Biacore 3000 system (GE Healthcare, Uppsala, Sweden). Briefly, 50 nM of recombinant human S100A9 was injected over immobilized RAGE and TLR4 (2 min at 30 μL/min) in the presence of increasing concentrations of ABR-238901, ranging from 0.0488 to 100 μM. The magnitude of the responses measured at the late dissociation phase (t 350 s) in the presence of ABR-238901 (BABR-238901) were expressed as percentage of response in the absence of competitor (Bo), and plotted against the concentration of ABR-238901 (FIG. 7b-c). The curves were fit to a sigmoidal dose-response model with variable slope in Prism GraphPad for calculation of IC50.

[2] = system: C57BL/6 mice with MI induced by permanent coronary artery ligation; test: MI by permanent coronary artery ligation, short-term (3 days) treatment: echocardiography, MRI, scar, infarct size, TUNEL; type: in vivo, mouse; settings: for Size of the infarction, percentage of the AAR volume, vs PBS: TTC
Description: All mouse studies were approved by the Animal Research Ethics Committee of Lund University. C57BL/6NRJ mice were purchased from Janvier Labs, C57BL/6-Tg(Nr4a1-EGFP/cre)820Khog/J (Nur77-EGFP) and B6;D2-Tg(Myh6*-mCherry)2Mik/J (α-MHC-mCherry) were purchased from the Jackson Laboratory. Nur77-EGFP mice express the fluorescent EGFP protein under the Nur77 promoter. α-MHC-mCherry mice express the red fluorescent Cherry protein under the mouse alpha myosin heavy-chain promoter in cardiomyocytes. We used 8-12 weeks old female mice in all experiments. MI was induced by left coronary artery ligation using a minimal thoracotomy model. Mice were initially anesthetized with 4% isoflurane and the surgical procedure was performed under 1.7% isoflurane. Following heart exposure outside of the thorax through a small thoracic incision, the left coronary artery was permanently ligated using silk 6.0 suture, the heart repositioned, and the thorax was closed with 6.0 prolene monofilament suture.
For short-term experiments, a daily dose of 30 mg/Kg ABR-238901 was diluted in PBS and administered by daily i.p. injections for the first 3 days post-MI, starting immediately after ischemia induction (days 0, 1 and 2) (FIG. 1A).
Ultrasound measurements were performed at day −1 (baseline), 7, and 21 to assess cardiac function using a Vevo 770 echocardiographic imaging system with a 707B probe (VisualSonics, Toronto, Canada). In selected experiments, additional assessment was performed on days 3 and 14. The mice were anesthetized using 1-3% isoflurane and hair was carefully removed using depilatory cream. To maintain body temperature, the mice were placed in supine position on a heated surface (37° C.). Two-dimensional M-mode images were recorded in the parasternal short-axis view at the mid-papillary level. Five complete cardiac cycles were traced to calculate fractional shortening, ejection fraction, left ventricular systolic volume, and left ventricular diastolic volume by using the VisualSonics software.
At 21 days after MI, the hearts were perfused with ice cold PBS and excised under ketamine/xylazine anesthesia. Subsequently the hearts were fixed in 4% (w/v) paraformaldehyde and embedded in paraffin. The hearts were sectioned transversely from the apex to the level of the suture, and 6 μm thick sections were collected at 390 μm intervals. The sections were mounted on glass slides and stained with Van Gieson or Masson trichrome stain for quantitative analysis of scar size. Alarmin S100A8/A9 was detected using mouse anti-S100A8/A9 IgG1 antibody (Abcam, ab 130234, 1:100 dilution, O/N 4° C.). Goat anti-mouse IgG1 HRP-conjugated secondary antibody (Abcam, ab 97240, 1 h RT) was used and the staining was developed with ImmPACT™ DAB (Vector, SK-4105) chromogen as substrate. The slides were subsequently scanned using an Aperio digital pathology slide scanner (Leica Biosystems), and images were captured with the ImageScope software (Leica Biosystems). Left ventricle area and the infarcted area were measured on each section by using the BioPix iQ 2.5.0 software (Biopix AB). The size of the post-MI myocardial scar was expressed as percentage of the left ventricle volume below the coronary ligature.
Magnetic resonance measurements were performed on a 9.4 T horizontal magnet (Agilent, Santa Clara, USA) equipped with Bruker BioSpec AVIII electronics operating with ParaVision 6.0.1 (Bruker, Ettlingen, Germany). The experiments were conducted under general anaesthesia using a mixture of isoflurane (2%) and 98% O2 via a nose cone. Rectal temperature, ECG signal, and breathing rate were monitored throughout the measurements (SA instruments, Stony Brook, USA). During the experiment, the mouse was positioned prone in an animal holder and kept warm to maintain constant body temperature at 36-37° C. ECG and respiration triggered FLASH sequence was used to acquire cinematographic MR image series of the beating heart. […]

[3] = 3 days treatment, MR, not statistically significant

In the case of `COc1ncc(S(=O)(=O)Nc2cncc(Cl)c2O)cc1Br` [ABR-238901, 5-bromo-N-(5-chloro-4-hydroxypyridin-3-yl)-6-methoxypyridine-3-sulfonamide], the IC50 [1] is reported as 2100 nM, the “Left ventricular EF, average” value ([2]; 30 mg/Kg i.p. at 0, 24, 48 h, echocardiography, day 21) is reported as 36% and the “Left ventricular EF vs PBS-treated controls” value ([2]; 30 mg/Kg i.p. at 0, 24, 48 h, echocardiography, days 3, 7, 21) is reported as “higher throughout the follow-up period”. The “Increase in cardiac output from day 3 to day 21” value ([2]; 3 days treatment, MR) was “approximately 30%”, the “Cardiac output (CO)” value ([2]; 3 days treatment, MR, day 3) was 8.1 mL/min and the “Left ventricular EF” value ([2]; 3 days treatment, MR, day 3) was 29%. For the same compound, the “Left ventricular EF” value ([2]; 3 days treatment, MR, day 7) was 25%, the “Cardiac output (CO)” value ([2]; 3 days treatment, MR, day 21) was 10.4 mL/min and the “Left ventricular EF” value ([2]; 3 days treatment, MR, day 21) was 26%. For the same compound, the “EDV vs PBS-treated MI group” value [2, 3] was “tendency towards lower”, the “ESV vs PBS-treated MI group” value [2, 3] was “tendency towards lower” and the “Size of the infarction, percentage of the AAR volume, vs PBS” value ([2]; 3 days treatment, day 3 post-MI) was “smaller”. For the same compound, the “Size of the infarction, percentage of the AAR volume, vs PBS” value ([2]; 3 days treatment, day 7 post-MI) was “smaller”, the “Average myocardial scar size vs controls” value ([2]; 3 days treatment, day 21, Van Gieson staining) was “tendency towards smaller” and the “Percentage of apoptotic cells in the myocardium (TUNEL)” value ([2]; day 3 post-MI) was “significantly reduced”.
